Values of other authors as cited in article PMC4506092, “Utilizing Chemical Genomics to Identify Cytochrome b as a Novel Drug Target for Chagas Disease” (PLoS Pathogens, 2015).

Test system: T. cruzi infection
Settings: cited from earlier work; for Parasitological cure rates: Chagas disease patients, clinical testing

Compound: C[C@@H](c1nc(-c2ccc(C#N)cc2)cs1)[C@@](Cn1cncn1)(OCOP(=O)(O)O)c1ccc(F)cc1F [Compound E1224]
- Parasitological cure rates: 20–30%
- Patients with failure to cure infection (treated Chagas patients): ~ 70%

Compound: CC[C@@H]([C@H](C)O)n1ncn(-c2ccc(N3CCN(c4ccc(OC[C@@H]5CO[C@@](Cn6cncn6)(c6ccc(F)cc6F)C5)cc4)CC3)cc2)c1=O [posaconazole]
- Parasitological cure rates: 20–30%
- Patients with recrudescence of infection (Chagas patients, 60-day treatment, determined by PCR): 81%
